Laboratory results: patent publication EP4790048A1, “S1PR4 REGULATOR COMPOUND FOR AUTOIMMUNE DISEASE TREATMENT AND APPLICATION THEREOF” (Shengyuan Zetong (Shanghai) Pharmaceutical Co., Ltd, priority 2023, dated 2025)

How the values were obtained:
[1] = target: T1, hS1P4 (Homo sapiens, UniProt O95977); assay: Tango β-arrestin recruitment luciferase assay, Tango-hS1P4-CHO; assay type: cell-based; details: β-arrestin recruitment; 20 h drug treatment; top 45 µM, 9 serial 5-fold dilutions; positive control 25 µM BAF-312; read-out: Tango-hS1P4-CHO EC50
T1 construct: expressed in transfected cells; host or cells: CHO
T1 sequence (O95977 1-384): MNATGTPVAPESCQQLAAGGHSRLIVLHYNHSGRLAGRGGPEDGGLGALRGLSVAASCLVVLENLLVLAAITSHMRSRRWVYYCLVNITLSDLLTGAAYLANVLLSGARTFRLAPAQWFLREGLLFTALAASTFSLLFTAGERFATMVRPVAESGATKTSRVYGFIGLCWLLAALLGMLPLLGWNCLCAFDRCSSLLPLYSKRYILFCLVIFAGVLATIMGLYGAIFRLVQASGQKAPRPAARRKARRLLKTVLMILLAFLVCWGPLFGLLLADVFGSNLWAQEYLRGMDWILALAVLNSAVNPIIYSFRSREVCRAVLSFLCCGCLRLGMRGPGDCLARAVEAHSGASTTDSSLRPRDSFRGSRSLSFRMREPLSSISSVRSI
Text: (§1) The Tango assay detects ligand-dependent GPCR activity through the interaction between β-arrestin and GPCRs. […] The NTEV fragment and the tetracycline transactivator (tTA), an artificial transcription factor, are fused at the C-terminus of the GPCR, while the CTEV fragment is fused to human β-arrestin 2. To enhance the stability of the interaction between GPCR and β-arrestin, a short sequence from the C-terminus of the human arginine vasopressin receptor 2 (V2 tail) is inserted between the GPCR and NTEV. The V2 tail contains multiple GRK phosphorylation sites, which strengthen β-arrestin binding upon phosphorylation. The CTEV fragment carries the stabile point mutation S219P and is truncated at residue 221 to remove the autoinhibitory C-terminal tail. Meanwhile, β-arrestin 2 is truncated to lack the entire C-terminal tail (residues 383-410 deleted). This truncation confers robust stimulus-dependent receptor desensitization, thereby improving detection sensitivity compared with wild-type β-arrestin 2. The UAS reporter construct consists of upstream activating sequence (UAS) elements, a minimal CMV promoter, and a tTA-dependent luciferase reporter gene. Therefore, constructing Tango cells requires the co-transfection of the above three plasmids into host cells. Upon GPCR activation and β-arrestin recruitment, the TEV enzyme at the β-arrestin terminus cleaves tTA from the GPCR C-terminus. The released tTA initiates tTA-dependent luciferase transcription, and compound activity is ultimately determined by measuring luminescence intensity.
(§2) • 1) Tango cell line from was digested from the culture dish respectively. After cell counting, the cells were plated at a density of 10,000 cells per well with […] into a white opaque 96-well plate (add 60 µL D'Hanks to the surrounding wells), and incubated overnight (20 h) in a 5% CO2 incubator at 37°C. The cell density will reach approximately 90% the next day. • 2) After 20 h, 30 µL of serially diluted compound solution was added to each well. The control group was supplemented with 30 µL F12K complete medium. Each group had three replicate wells. • 3) Samples were collected after 20 h of drug treatment.
(§3) (All compounds were tested at a final concentration of 45 µM, with 9 serial dilutions at 5-fold intervals. 1 µM BAF-312 was used as the positive control for S1PR1, and 25 µM BAF-312 was used as the positive control for S1PR4.

[2] = target: T2, hS1P1 (Homo sapiens, UniProt P21453); assay: Tango β-arrestin recruitment luciferase assay, Tango-hS1P1-CHO; assay type: cell-based; details: β-arrestin recruitment; 20 h drug treatment; top 45 µM, 9 serial 5-fold dilutions; positive control 1 µM BAF-312; read-out: Tango-hS1P1-CHO EC50
T2 construct: expressed in transfected cells; host or cells: CHO
Text: as §1, §2, §3

T2 sequence (P21453 whole entry): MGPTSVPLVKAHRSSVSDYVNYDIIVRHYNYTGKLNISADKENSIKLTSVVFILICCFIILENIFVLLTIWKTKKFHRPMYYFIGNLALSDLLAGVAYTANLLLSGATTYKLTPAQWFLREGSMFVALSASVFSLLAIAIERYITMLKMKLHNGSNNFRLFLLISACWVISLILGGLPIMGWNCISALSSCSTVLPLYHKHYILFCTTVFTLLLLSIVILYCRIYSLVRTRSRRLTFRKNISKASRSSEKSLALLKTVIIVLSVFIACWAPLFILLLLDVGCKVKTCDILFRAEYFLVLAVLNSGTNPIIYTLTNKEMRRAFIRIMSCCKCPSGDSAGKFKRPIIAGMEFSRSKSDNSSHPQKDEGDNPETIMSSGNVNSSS

**Q.** How did the EC50 [1] turn out when `C/C(=N\OCc1ccc(C2CCCCC2)cc1)c1ccc(CN2CC(C(=O)O)C2)cc1` [Compound 1] was run?
**A.** Its EC50 is 2970 nM.

**Q.** What about the EC50 [2] of the same compound?
**A.** The EC50 was 699 nM.

**Q.** What does the source list for `CCc1cc(/C(C)=N/OCc2ccc(C3CCCCC3)cc2)ccc1CN1CC(C(=O)O)C1` [Compound 3]?
**A.** EC50 [1]: 2160 nM; EC50 [2]: 578 nM

**Q.** For `C/C(=N\OCc1ccc(C2CCCCC2)c(C(F)(F)F)c1)c1ccc(CN2CCCC(C(=O)O)C2)cc1` (centres unmarked) [Compound 7], which EC50 [1] is on record?
**A.** Its EC50 is 2500 nM.

**Q.** What about the EC50 [2] of the same compound?
**A.** The EC50 was 508 nM.

**Q.** With `C/C(=N\OCc1ccc(C2CCCCC2)c(C(F)(F)F)c1)c1ccc(CNC2CCCC(C(=O)O)C2)cc1` (centres unmarked) [Compound 9, (E)-3-((4-((1-((4-cyclohexyl-3-(trifluoromethyl)benzyl)oxy)imino)ethyl)benzyl)amino)cyclohexane-1-carboxylic acid] as the compound, how does the EC50 [1] read?
**A.** Its EC50 is 2350 nM.

**Q.** And the EC50 [2]?
**A.** Its EC50 is 455 nM.

**Q.** Which EC50 [1] does the source give for `CCc1cc(/C(C)=N/OCc2ccc(C)c(C(F)(F)F)c2)ccc1CN1CC(C(=O)O)C1` [Compound 14, (E)-1-(2-ethyl-4-(1-((4-methyl-3-(trifluoromethyl)benzyl)oxy)imino)ethyl)azetidine-3-carboxylic acid] here?
**A.** Its EC50 is 3660 nM.

**Q.** And the EC50 [2]?
**A.** The EC50 was 5990 nM.

**Q.** How did the EC50 [1] turn out when `CCc1cc(/C(C)=N/OCc2ccc(-c3ccc(F)cc3)c(C)c2)ccc1CN1CC[C@H](C(=O)O)C1` [Compound 34, (S, E)-1-(2-ethyl-4-(1-(((4'-fluoro-2-methyl-[1,1'-biphenyl]-4-yl)methoxy)imino)ethyl)benzyl)pyrrolidine-3-carboxylic acid] was run?
**A.** Its EC50 is 2.4 nM.

**Q.** And the EC50 [2]?
**A.** The EC50 was 86.9 nM.

**Q.** Which results are given for `CCc1cc(/C(C)=N/OCc2ccc(-c3ccccc3)c(F)c2)ccc1CN1CC[C@H](C(=O)O)C1` [Compound 35, (S, E)-1-(2-ethyl-4-(1-(((2-fluoro-[1,1'-biphenyl]-4-yl)methoxy)imino)ethyl)benzyl)pyrrolidine-3-carboxylic acid]?
**A.** EC50 [1]: 3.79 nM; EC50 [2]: 104 nM

**Q.** `CCc1cc(/C(C)=N/OCc2ccc(-c3ccoc3)c(C)c2)ccc1CN1CC[C@H](C(=O)O)C1` [Compound 36, (S, E)-1-(2-ethyl-4-(1-(((4-(furan-3-yl)-3-methylbenzyl)oxy)imino)ethyl)benzyl)pyrrolidine-3-carboxylic acid] was tested. Which EC50 [1] did it give?
**A.** The EC50 was 1.67 nM.

**Q.** And the EC50 [2]?
**A.** The EC50 was 103 nM.

**Q.** Which EC50 [1] does the source give for `CCc1cc(/C(C)=N/OCc2ccc(-c3ccncc3)c(C)c2)ccc1CN1CC[C@H](C(=O)O)C1` [Compound 37, (S, E)-1-(2-ethyl-4-(1-(((3-methyl-4-(pyridin-4-yl)benzyl)oxy)imino)ethyl)benzyl)pyrrolidine-3-carboxylic acid] here?
**A.** The EC50 was 15.6 nM.

**Q.** And the EC50 [2]?
**A.** The EC50 was 644 nM.

**Q.** With `CCc1cc(/C(C)=N/OCc2ccc(-c3cncn3C)c(C)c2)ccc1CN1CC[C@H](C(=O)O)C1` [Compound 44] as the compound, how does the EC50 [2] read?
**A.** Its EC50 is over 10000 nM.

**Q.** For `CCc1cc(/C(C)=N/OCc2ccc(-c3c(C)noc3C)c(C)c2)ccc1CN1CC[C@H](C(=O)O)C1` [Compound 45], which EC50 [2] is on record?
**A.** Its EC50 is over 10000 nM.

**Q.** How did the EC50 [1] turn out when `CCc1cc(/C(C)=N/OCc2ccc(-c3cnn(C)c3)cc2)ccc1CN1CC[C@H](C(=O)O)C1` [Compound 55] was run?
**A.** The EC50 was 269 nM.

**Q.** And the EC50 [2]?
**A.** Its EC50 is over 10000 nM.

**Q.** For `CCc1cc(/C(C)=N/OCc2ccc(-c3ccc(F)nc3)cc2F)ccc1CN1CC[C@H](C(=O)O)C1` [Compound 65], which EC50 [2] is on record?
**A.** Its EC50 is over 10000 nM.

**Q.** How did the EC50 [2] turn out when `CCc1cc(/C(C)=N/OCc2ccc(-c3ccc(F)nc3)nc2)ccc1CN1CC[C@H](C(=O)O)C1` [Compound 66, (S, E)-1-(2-ethyl-4-(1-(((6'-fluoro-[2,3'-bipyridin]-5-yl)methoxy)imino)ethyl)benzyl)pyrrolidine-3-carboxylic acid] was run?
**A.** Its EC50 is over 10000 nM.

**Q.** With `CCc1cc(/C(C)=N/OCc2ccc(-c3cncnc3)cc2)ccc1CN1CC[C@H](C(=O)O)C1` [Compound 70, (S, E)-1-(2-ethyl-4-(1-(((4-(pyrimidin-5-yl)benzyl)oxy)imino)ethyl)benzyl)pyrrolidine-3-carboxylic acid] as the compound, how does the EC50 [2] read?
**A.** Its EC50 is over 10000 nM.

**Q.** With `CCc1cc(/C(C)=N/OCc2ccc(-c3cncnc3)c(F)c2)ccc1CN1CC[C@H](C(=O)O)C1` [Compound 71, (S, E)-1-(2-ethyl-4-(1-(((3-fluoro-4-(pyrimidin-5-yl)benzyl)oxy)imino)ethyl)benzyl)pyrrolidine-3-carboxylic acid] as the compound, how does the EC50 [2] read?
**A.** Its EC50 is over 10000 nM.

**Q.** How did the EC50 [2] turn out when `CCc1cc(/C(C)=N/OCc2ccc(-c3cnsc3)cc2)ccc1CN1CC[C@H](C(=O)O)C1` [Compound 74] was run?
**A.** Its EC50 is over 10000 nM.

**Q.** How did the EC50 [2] turn out when `CCc1cc(/C(C)=N/OCc2ccc(-c3ccns3)cc2)ccc1CN1CC[C@H](C(=O)O)C1` [Compound 75] was run?
**A.** The EC50 was over 10000 nM.

**Q.** `CCc1cc(/C(C)=N/OCc2ccc(-c3cnc(F)nc3)cc2F)ccc1CN1CC[C@H](C(=O)O)C1` [Compound 79, (S, E)-1-(2-ethyl-4-(1-(((2-fluoro-4-(2-fluoropyrimidin-5-yl)benzyl)oxy)imino)ethyl)benzyl)pyrrolidine-3-carboxylic acid] was tested. Which EC50 [2] did it give?
**A.** The EC50 was over 10000 nM.

**Q.** For `CCc1cc(/C(C)=N/OCc2ccc(-c3cncnc3)c(C)c2)ccc1CN1CCC(C(=O)O)CC1` [Compound 82, (E)-1-(2-ethyl-4-(1-(((3-methyl-4-(pyrimidin-5-yl)benzyl)oxy)imino)ethyl)benzyl)piperidine-4-carboxylic acid], which EC50 [1] is on record?
**A.** Its EC50 is 42.7 ± 2.28 nM.

**Q.** And the EC50 [2]?
**A.** Its EC50 is over 10000 nM.

**Q.** `CCc1cc(/C(C)=N/OCc2ccc(-c3cncnc3C)c(C)c2)ccc1CN1CC[C@H](C(=O)O)C1` [Compound 83, (S, E)-1-(2-ethyl-4-(1-(((3-methyl-4-(4-methylpyrimidin-5-yl)benzyl)oxy)imino)ethyl)benzyl)pyrrolidine-3-carboxylic acid] was tested. Which EC50 [2] did it give?
**A.** Its EC50 is over 10000 nM.

**Q.** `CCc1cc(/C(C)=N/OCc2ccc(-c3ccnnc3)c(C)c2)ccc1CN1CC[C@H](C(=O)O)C1` [Compound 84, (S, E)-1-(2-ethyl-4-(1-(((3-methyl-4-(pyridazin-4-yl)benzyl)oxy)imino)ethyl)benzyl)pyrrolidine-3-carboxylic acid] was tested. Which EC50 [2] did it give?
**A.** The EC50 was over 10000 nM.

**Q.** For `CCc1cc(/C(C)=N/OCc2c(F)cc(-c3ccc(F)nc3)cc2F)ccc1CN1CC[C@H](C(=O)O)C1` [Compound 86, (S, E)-1-(2-ethyl-4-(1-(((2,6-difluoro-4-(6-fluoropyridin-3-yl)benzyl)oxy)imino)ethyl)benzyl)pyrrolidine-3-carboxylic acid], which EC50 [2] is on record?
**A.** Its EC50 is over 10000 nM.

**Q.** `CCc1cc(/C(C)=N/OCc2ccc(-c3cnc(F)cn3)cc2F)ccc1CN1CC[C@H](C(=O)O)C1` [Compound 87, (S, E)-1-(2-ethyl-4-(1-(((2-fluoro-4-(5-fluoropyrazin-2-yl)benzyl)oxy)imino)ethyl)benzyl)pyrrolidine-3-carboxylic acid] was tested. Which EC50 [1] did it give?
**A.** The EC50 was 17.4 ± 0.39 nM.

**Q.** And the EC50 [2]?
**A.** Its EC50 is over 10000 nM.

**Q.** `CCc1cc(/C(C)=N/OCc2ccc(-c3cnc(F)cn3)c(C)c2)ccc1CN1CCCC(C(=O)O)C1` (centres unmarked) [Compound 92, (E)-1-(2-ethyl-4-(1-(((3-methyl-4-(5-fluoropyrazin-2-yl)-benzyl)oxy)imino)ethyl)benzyl)piperidine-3-carboxylic acid] was tested. Which EC50 [1] did it give?
**A.** Its EC50 is over 10000 nM.

**Q.** What about the EC50 [2] of the same compound?
**A.** The EC50 was over 10000 nM.
